The results in this text go back to patent US9896441B2 (Lycera Corporation, priority 2014, dated 2018).

The target of one assay is T1, Gal4-RORγ-LBD (Homo sapiens, UniProt P51449).
T1 construct: expressed in transfected cells
T1 sequence (P51449 269-508 limits assumed): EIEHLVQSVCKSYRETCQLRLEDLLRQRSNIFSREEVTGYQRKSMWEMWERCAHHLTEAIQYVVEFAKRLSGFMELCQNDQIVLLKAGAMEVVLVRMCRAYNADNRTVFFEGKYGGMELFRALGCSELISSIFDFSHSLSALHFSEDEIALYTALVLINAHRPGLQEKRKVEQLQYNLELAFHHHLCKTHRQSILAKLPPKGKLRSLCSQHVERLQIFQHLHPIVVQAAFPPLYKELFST
The experiment in a line: Gal4-RORγ Luciferase Reporter Assay in HEK-293T Cells. The class given is cell-based. The note with it: HEK-293 cells, luciferase reporter; for Gal4-RORγ Assay Max Response: maximum response. The essentials:
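HEK-293 cells were co-transfected with Gal4-RORγ-LBD and a Gal4-luciferase reporter, then exposed overnight at 37 °C to compounds with […] ursolic acid present (0.2% DMSO). Luminescence was read with One-Glo after 10 min at RT, untreated signal was set as 100, and Max Response was taken as the upper plateau of a 4-parameter logistic fit.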

Another assay addresses T2, RORγ-LBD (Homo sapiens, UniProt P51449).
T2 construct: made in house; host or cells: SF9 cells (baculovirus); used as diluted lysate
T2 sequence (P51449 269-508 limits assumed): T1 sequence (P51449 269-508 limits assumed)
The assay can be described thus: RORγ-Ligand Binding Domain (LBD) TR-FRET Assay.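 As to TR-FRET Assay Max Response: 665/615 nm signal ratio set to 100 without ursolic acid or test compound.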 Type of assay: biochemical. The note with it: for TR-FRET Assay Max Response: maximum response. The procedure, abridged:
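This TR-FRET coactivator assay pairs baculovirus-expressed His-RORγ-LBD (~3 nM final) with biotin-SRC1 LXXLL peptide at 200 nM final in pH 7.0 Tris/KCl/EDTA/DTT/BSA buffer.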

With `O=C(O)CC[C@H]1CN(S(=O)(=O)c2cn(CC(F)F)nc2OCCO)c2cc(/C=C/c3c(Cl)cccc3C(F)(F)F)ccc2O1` [Example 89EF, (S,E)-3-(6-(2-chloro-6-(trifluoromethyl)styryl)-4-((1-(2,2-difluoroethyl)-3-(2-hydroxyethoxy)-1H-pyrazol-4-yl)sulfonyl)-3,4-dihydro-2H-benzo[b][1,4]oxazin-2-yl)propanoic acid], the EC50 on Gal4-RORγ-LBD (with ursolic acid) and at RORγ-LBD (RORγ-LBD TR-FRET) was under 500 nM in each case.
For `CCOc1nn(CC)cc1S(=O)(=O)N1C[C@H](CCC(=O)OC)Oc2ccc(/C=C/c3nccnc3Cl)cc21` [Example 89N, (S,E)-methyl 3-(6-(2-(3-chloropyrazin-2-yl)vinyl)-4-((3-ethoxy-1-ethyl-1H-pyrazol-4-yl)sulfonyl)-3,4-dihydro-2H-benzo[b][1,4]oxazin-2-yl)propanoate], the EC50 was over 10000 nM on Gal4-RORγ-LBD (with ursolic acid) and 5000 to 10000 nM at RORγ-LBD (RORγ-LBD TR-FRET).
Regarding `C/C(=C\c1ccc2c(c1)N(S(=O)(=O)c1cc(Cl)cnc1OCCO)C[C@H](CCC(=O)O)O2)c1c(F)cccc1Cl` [Example 70, (S,E)-3-(4-((5-Chloro-2-(2-hydroxyethoxy)pyridin-3-yl)sulfonyl)-6-(2-(2-chloro-6-fluorophenyl)prop-1-en-1-yl)-3,4-dihydro-2H-benzo[b][1,4]oxazin-2-yl)propanoic acid], the EC50 at Gal4-RORγ-LBD (with ursolic acid) and at RORγ-LBD (RORγ-LBD TR-FRET) was under 500 nM in each case.
In the case of `CCOc1ncc(Cl)cc1S(=O)(=O)N1C[C@H](CCC(=O)O)Oc2ccc(/C=C/c3c(F)cccc3Cl)cc21` [Example 89CX, (S,E)-3-(4-((5-chloro-2-ethoxypyridin-3-yl)sulfonyl)-6-(2-chloro-6-fluorostyryl)-3,4-dihydro-2H-benzo[b][1,4]oxazin-2-yl)propanoic acid], the values for the EC50 at Gal4-RORγ-LBD (with ursolic acid) and on RORγ-LBD (RORγ-LBD TR-FRET) were 500 to 5000 nM and under 500 nM, respectively.
In the case of `C/C(=C\c1ccc2c(c1)N(S(=O)(=O)c1cccc(OC(F)F)c1)C[C@H](CCC(=O)O)O2)c1c(F)cccc1Cl` [Example 86O, (S,E)-3-(6-(2-(2-chloro-6-fluorophenyl)prop-1-en-1-yl)-4-((3-(difluoromethoxy)phenyl)-sulfonyl)-3,4-dihydro-2H-benzo[b][1,4]oxazin-2-yl)propanoic acid], the figures for the EC50 on Gal4-RORγ-LBD (with ursolic acid) and on RORγ-LBD (RORγ-LBD TR-FRET) were 500 to 5000 nM and under 500 nM, respectively.
For `CCOc1nn(CC)cc1S(=O)(=O)N1C[C@H](CCC(=O)OC)Oc2ccc(/C=C/c3ccccc3F)cc21` [Example 89AN, (S,E)-methyl 3-(4-((3-ethoxy-1-ethyl-1H-pyrazol-4-yl)sulfonyl)-6-(2-fluorostyryl)-3,4-dihydro-2H-benzo[b][1,4]oxazin-2-yl)propanoate], the EC50 on Gal4-RORγ-LBD (with ursolic acid) is over 10000 nM; on RORγ-LBD (RORγ-LBD TR-FRET) it was 500 to 5000 nM.
`CCOc1nn(CC)cc1S(=O)(=O)N1C[C@H](CCC(=O)O)Oc2ccc(/C=C(\C)c3c(Cl)cccc3C(F)(F)F)cc21` [Example 86AW, (S,E)-3-(6-(2-(2-chloro-6-(trifluoromethyl)phenyl)prop-1-en-1-yl)-4-((3-ethoxy-1-ethyl-1H-pyrazol-4-yl)sulfonyl)-3,4-dihydro-2H-benzo[b][1,4]oxazin-2-yl)propanoic acid]: the EC50 on Gal4-RORγ-LBD (with ursolic acid) and at RORγ-LBD (RORγ-LBD TR-FRET) was under 500 nM each time.
On to `COc1cc(S(=O)(=O)N2C[C@H](CCC(=O)O)Oc3ccc(/C=C(\C)C4CCCC4)cc32)ccc1F` [Example 191A, (S,E)-3-(6-(2-cyclopentylprop-1-en-1-yl)-4-((4-fluoro-3-methoxyphenyl)sulfonyl)-3,4-dihydro-2H-benzo[b][1,4]-oxazin-2-yl)propanoic acid], for which, on Gal4-RORγ-LBD (in presence of ursolic acid), the EC50 lay in the range of 500 to 5000 nM and the “Gal4-RORγ Assay Max Response” value was “** (a value in the range of greater than 90 to 150)”. Also, at RORγ-LBD (RORγ-LBD TR-FRET assay), the EC50 was under 500 nM and the “TR-FRET Assay Max Response” value is listed as “** (a value in the range of greater than 90 to 150)”.
Regarding `CC(C)=Cc1ccc2c(c1)N(S(=O)(=O)c1cccc(C(F)(F)F)c1)C[C@H](CCC(=O)O)O2` [Example 95AB, (S)-3-(6-(2-methylprop-1-en-1-yl)-4-((3-(trifluoromethyl)-phenyl)sulfonyl)-3,4-dihydro-2H-benzo[b][1,4]oxazin-2-yl)propanoic acid], the figures for the EC50 at Gal4-RORγ-LBD (with ursolic acid) and on RORγ-LBD (RORγ-LBD TR-FRET) were 500 to 5000 nM and under 500 nM, respectively.
With `CC1CCC(=Cc2ccc3c(c2)N(S(=O)(=O)c2cc(C(F)(F)F)cnc2OCCO)C[C@H](CCC(=O)O)O3)CC1` (stereo partly drawn) [Example 95P, 3-((2S)-4-((2-(2-hydroxyethoxy)-5-(trifluoromethyl)pyridin-3-yl)sulfonyl)-6-((4-methylcyclohexylidene)methyl)-3,4-dihydro-2H-benzo[b][1,4]oxazin-2-yl)propanoic acid], the EC50 on Gal4-RORγ-LBD (with ursolic acid) was 500 to 5000 nM; at RORγ-LBD (RORγ-LBD TR-FRET), under 500 nM.
Turning to `C/C(=C\c1ccc2c(c1C)N(S(=O)(=O)c1cccc(OC(F)F)c1)C[C@H](CCC(=O)O)O2)c1c(F)cccc1Cl` [Example 60, (S,E)-3-(6-(2-(2-Chloro-6-fluorophenyl)prop-1-en-1-yl)-4-((3-(difluoromethoxy)phenyl)sulfonyl)-5-methyl-3,4-dihydro-2H-benzo[b][1,4]oxazin-2-yl)propanoic acid], the EC50 was 500 to 5000 nM at Gal4-RORγ-LBD (with ursolic acid) and under 500 nM at RORγ-LBD (RORγ-LBD TR-FRET).
For `C/C(=C\c1ccc2c(c1)N(S(=O)(=O)c1cccc(C(F)(F)F)c1)C[C@H](CCC(=O)N1CCC(C(N)=O)CC1)O2)c1c(F)cccc1Cl` [Example 127A, (S,E)-1-(3-(6-(2-(2-chloro-6-fluoro-phenyl)-prop-1-en-1-yl)-4-((3-(trifuoromethyl)phenyl)sulfonyl)-3,4-dihydro-2H-benzo[b][1,4]oxazin-2-yl)propanoyl)piperidine-4-carboxamide], on Gal4-RORγ-LBD (in presence of ursolic acid), the EC50 was under 500 nM and the “Gal4-RORγ Assay Max Response” value is listed as “** (a value in the range of greater than 90 to 150)”. Moreover, at RORγ-LBD (RORγ-LBD TR-FRET assay), the EC50 was under 500 nM and the “TR-FRET Assay Max Response” value is reported as “**** (a value greater than 200)”.
With `COc1cc(S(=O)(=O)N2c3cc(OCc4c(F)cccc4Cl)ccc3C=C(CNC(C)=O)[C@H]2C)ccc1F` [Example 140, (R)—N-((7-((2-Chloro-6-fluorobenzyl)oxy)-1-((4-fluoro-3-methoxyphenyl)sulfonyl)-2-methyl-1,2-dihydroquinolin-3-yl)methyl)acetamide], the EC50 at Gal4-RORγ-LBD (in presence of ursolic acid) and on RORγ-LBD (RORγ-LBD TR-FRET assay) was under 500 nM throughout.
Consider `C/C(=C\c1ccc2c(c1)N(S(=O)(=O)c1cccc(C(F)(F)F)c1)C[C@H](CCC(=O)N1CCNCC1)O2)c1c(F)cccc1Cl` [Example 127F, (S,E)-3-(6-(2-(2-chloro-6-fluorophenyl)prop-1-en-1-yl)-4-((3-(trifluoromethyl)phenyl)sulfonyl)-3,4-dihydro-2H-benzo[b][1,4]oxazin-2-yl)-1-(piperazin-1-yl)propan-1-one], for which, on Gal4-RORγ-LBD (in presence of ursolic acid), the EC50 was in the range of 500 to 5000 nM and the “Gal4-RORγ Assay Max Response” value was “** (a value in the range of greater than 90 to 150)”. In addition, at RORγ-LBD (RORγ-LBD TR-FRET assay), the EC50 was under 500 nM and the “TR-FRET Assay Max Response” value is “**** (a value greater than 200)”.
Consider `CCOc1ncc(C(F)(F)F)cc1S(=O)(=O)N1C[C@H](CCC(=O)O)Oc2ccc(/C=C/c3c(F)cccc3Cl)cc21` [Example 89DU, (S,E)-3-(6-(2-chloro-6-fluorostyryl)-4-((2-ethoxy-5-(trifluoromethyl)pyridin-3-yl)sulfonyl)-3,4-dihydro-2H-benzo[b][1,4]oxazin-2-yl)propanoic acid], for which the results for the EC50 at Gal4-RORγ-LBD (with ursolic acid) and at RORγ-LBD (RORγ-LBD TR-FRET) were 500 to 5000 nM and under 500 nM, respectively.
As for `Cc1ccc(F)c(/C=C/c2ccc3c(c2)N(S(=O)(=O)c2cccc(C(F)(F)F)c2)C[C@H](CCC(=O)O)O3)c1` [Example 89CA, (S,E)-3-(6-(2-fluoro-5-methylstyryl)-4-((3-(trifluoromethyl)phenyl)sulfonyl)-3,4-dihydro-2H-benzo[b][1,4]oxazin-2-yl)propanoic acid], the EC50 on Gal4-RORγ-LBD (with ursolic acid) is over 10000 nM; at RORγ-LBD (RORγ-LBD TR-FRET) it was under 500 nM.
For `CCOc1ncc(C(F)(F)F)cc1S(=O)(=O)N1C[C@H](CNC(=O)CCC(=O)O)Oc2ccc(/C=C/c3c(F)cccc3Cl)cc21` [Example 109F, (S,E)-4-(((6-(2-chloro-6-fluorostyryl)-4-((2-ethoxy-5-(trifluoro-methyl)pyridin-3-yl)sulfonyl)-3,4-dihydro-2H-benzo[b][1,4]oxazin-2-yl)methyl)amino)-4-oxobutanoic acid], at Gal4-RORγ-LBD (in presence of ursolic acid), the EC50 was in the range of 500 to 5000 nM and the “Gal4-RORγ Assay Max Response” value is “** (a value in the range of greater than 90 to 150)”. Also, at RORγ-LBD (RORγ-LBD TR-FRET assay), the EC50 was under 500 nM and the “TR-FRET Assay Max Response” value was “*** (a value in the range of greater than 150 to 200)”.
`CCOc1nn(CC)cc1S(=O)(=O)N1C[C@H](CCC(=O)O)Oc2ccc(/C=C/c3c(Cl)cccc3Cl)cc21` [Example 89CR, (S,E)-3-(6-(2,6-dichlorostyryl)-4-((3-ethoxy-1-ethyl-1H-pyrazol-4-yl)sulfonyl)-3,4-dihydro-2H-benzo[b][1,4]oxazin-2-yl)-propanoic acid]: the EC50 at Gal4-RORγ-LBD (with ursolic acid) and at RORγ-LBD (RORγ-LBD TR-FRET) was under 500 nM throughout.
